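Results reflect a 48-hour exposure of cells in 96-well plates to compound at five concentrations. GI50 is the concentration that inhibits growth by half. TGI: total growth inhibition.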
Experiments:
Experiment in all cases: DTP human tumour cell line panel, 48 h
SW-620 colon = tested on: SW-620 colon
SK-MEL-2 melanoma = tested on: SK-MEL-2 melanoma
A498 renal = tested on: A498 renal
NCI-H522 lung = tested on: NCI-H522 lung
NCI-H226 lung = tested on: NCI-H226 lung
LOX IMVI melanoma = tested on: LOX IMVI melanoma
DU-145 prostate = tested on: DU-145 prostate
SF-268 CNS = tested on: SF-268 CNS
HOP-92 NSCLC = tested on: HOP-92 NSCLC
MALME-3M melanoma = tested on: MALME-3M melanoma

Row | SMILES | GI50 (SW-620 colon) [µM] | TGI (SW-620 colon) [µM] | GI50 (SK-MEL-2 melanoma) [µM] | TGI (SK-MEL-2 melanoma) [µM] | GI50 (A498 renal) [µM] | TGI (A498 renal) [µM] | GI50 (NCI-H522 lung) [µM] | TGI (NCI-H522 lung) [µM] | GI50 (NCI-H226 lung) [µM] | TGI (NCI-H226 lung) [µM] | GI50 (LOX IMVI melanoma) [µM] | TGI (LOX IMVI melanoma) [µM] | GI50 (DU-145 prostate) [µM] | TGI (DU-145 prostate) [µM] | GI50 (SF-268 CNS) [µM] | TGI (SF-268 CNS) [µM] | GI50 (HOP-92 NSCLC) [µM] | TGI (HOP-92 NSCLC) [µM] | TGI (MALME-3M melanoma) [µM]
1 | O=[N+]([O-])c1ccc(N/N=C\c2cc(Br)ccc2O)nc1 | 0.934 | > 100 | 4.88 | > 100 | 6.11 | > 100 | 0.485 | 3.23 | 3.11 | > 100 | 0.472 | 2.37 | 0.912 | 5.77 | 0.452 | 4.18 | 1.62 | 6.77 | –
2 | O=C(NC1CCCCC1)c1n[nH]nc1Cl | – | > 100 | – | > 100 | – | > 100 | – | – | – | – | – | > 100 | – | > 100 | – | > 100 | – | > 100 | –
3 | CC(=O)Nc1nc2c(=O)c3ccccc3sc2s1 | – | – | – | > 100 | – | > 100 | – | – | – | > 100 | – | – | – | > 100 | – | > 100 | – | – | –
4 | CC1=C(C(=O)NNC(=O)C[N+](C)(C)C)CC(C(=O)NNC(=O)C[N+](C)(C)C)=C(C)N1 | – | > 100 | – | > 100 | – | > 100 | – | > 100 | – | > 100 | – | > 100 | – | > 100 | – | > 100 | – | > 100 | –
5 | CCc1nc(N)nc(N)c1-c1ccc(N2CCOCC2)c(N=[N+]=[N-])c1 | – | > 100 | – | > 100 | – | > 100 | – | 37.9 | – | > 100 | – | > 100 | – | > 100 | – | > 100 | – | > 100 | –
6 | CCCCCCC1OC23OC1CCC2C(O)CCC3O (stereo not drawn) | – | > 100 | – | > 100 | – | > 100 | – | > 100 | – | > 100 | – | > 100 | – | > 100 | – | > 100 | – | – | > 100
7 | CCOC(=O)c1c(C)n(-c2ccc(C)cc2)c(=O)c2ccccc2c(=O)c2c(=O)ccc(=O)c1=2 | – | 49.9 | – | 61 | – | – | – | 42.6 | – | 59.7 | – | 36.4 | – | 39.3 | – | 54.2 | – | 38.2 | 32.5
8 | Cc1cc2nnn(C3CCCCO3)c2cc1C (stereo not drawn) | – | – | – | > 100 | – | – | – | > 100 | – | > 100 | – | – | – | > 100 | – | – | – | – | > 100
9 | COc1cc2c(cc1OCCCOc1cc3c(cc1OC)C(=O)N1CCC[C@H]1C(=O)N3)N=C[C@@H]1CCCN1C2=O | – | 56.5 | – | 69.6 | – | 37.9 | – | 6.34 | – | 35.5 | – | 18.7 | – | > 100 | – | > 100 | – | – | 29.8
10 | C/C=C1/C=CC2c3[nH]c4ccccc4c3CCN2C1 (stereo not drawn) | – | > 400 | – | > 400 | – | – | – | > 400 | – | > 400 | – | > 400 | – | – | – | > 400 | – | > 400 | > 400
11 | Cc1ccc2c(c1C)CC1(Cc3ccc(C)c(C)c3C1=O)C2=O (stereo not drawn) | – | > 100 | – | > 100 | – | – | – | > 100 | – | > 100 | – | > 100 | – | > 100 | – | > 100 | – | 87 | > 100
12 | COC(=O)C1(CCCCl)CCCN1C(=O)OC(C)(C)C (stereo not drawn) | – | > 100 | – | > 100 | – | – | – | – | – | > 100 | – | > 100 | – | > 100 | – | > 100 | – | – | –
13 | CCOC(OCC)(OCC)C(Br)CC (stereo not drawn) | – | – | – | > 100 | – | > 100 | – | > 100 | – | > 100 | – | > 100 | – | – | – | > 100 | – | > 100 | > 100
14 | CCN(C(=O)N[C@@H](CC(C)C)C(=O)NCC(=O)OC)c1ccccc1 | – | > 100 | – | > 100 | – | – | – | > 100 | – | > 100 | – | > 100 | – | > 100 | – | – | – | > 100 | 51.1
15 | O=C(Nc1ccc(Cl)cc1Cl)C1C(=O)OC2(CCCCC2)OC1=O | – | 25.3 | – | 12.6 | – | 31.5 | – | 52.5 | – | 29.3 | – | 20.4 | – | 28.7 | – | 50.5 | – | 28.1 | –
16 | N/C(CCSCCSCC/C(N)=N\O)=N\O | – | > 100 | – | – | – | – | – | > 100 | – | > 100 | – | > 100 | – | > 100 | – | > 100 | – | > 100 | > 100
17 | O=C(O)c1ccccc1/C=C1\Cc2cc3c(cc2C1=O)CCC3 | – | 60.4 | – | 55.4 | – | 80.1 | – | 45.6 | – | 80.8 | – | 31.4 | – | > 100 | – | > 100 | – | – | > 100
18 | Clc1ccc(C(OCn2ccnc2)c2nc3ccccc3[nH]2)c(Cl)c1 (stereo not drawn) | – | > 100 | – | > 100 | – | > 100 | – | > 100 | – | – | – | > 100 | – | > 100 | – | > 100 | – | 10.1 | > 100
19 | CN(/N=C/c1ccccn1)C1=NCCN1 | – | > 100 | – | > 100 | – | > 100 | – | > 100 | – | > 100 | – | > 100 | – | – | – | > 100 | – | > 100 | > 100
20 | CCOC(=O)c1nc2ccc(C(F)(F)F)cc2nc1Oc1ccc(OC)cc1 | – | > 100 | – | > 100 | – | > 100 | – | – | – | > 100 | – | > 100 | – | > 100 | – | > 100 | – | > 100 | > 100
21 | CC(=O)n1c2ccc(Br)cc2c2nc3ccccc3nc21 | – | > 100 | – | > 100 | – | – | – | > 100 | – | > 100 | – | > 100 | – | > 100 | – | > 100 | – | > 100 | > 100
22 | COc1cc(CCN)c(OC)c(OC)c1 | – | > 100 | – | > 100 | – | > 100 | – | > 100 | – | – | – | > 100 | – | > 100 | – | > 100 | – | > 100 | > 100
23 | COC(=O)/C(=N\N)C(C(=O)C(=O)Nc1cc(Cl)ccc1Cl)c1nc2ccc([N+](=O)[O-])cc2[nH]c1=O (stereo not drawn) | – | > 100 | – | > 100 | – | > 100 | – | > 100 | – | > 100 | – | > 100 | – | – | – | > 100 | – | > 100 | > 100
24 | Cc1cccc(C)c1NC(=O)C(=O)CC(=O)c1sc(Nc2c(C)cccc2C)nc1C | – | > 100 | – | > 100 | – | > 100 | – | > 100 | – | > 100 | – | > 100 | – | > 100 | – | > 100 | – | > 100 | –

From PubChem BioAssay (NCI)
